The values below come from paper PMC6299835 (Toxicon : official journal of the International Society on …, 2018).

Experiment [1] concerns hMrgprX1;Mrgpr-cluster∆−/− transgenic mouse. To be noted: in vivo.
In the next experiment the target is human MrgprX1 (hMrgprX1) (Homo sapiens, UniProt Q96LB2). Nature of the experiment: cell-based. In kind it is cell-based.

No end group written: not given here.

The term EC50 denotes the concentration at which the effect is half-maximal.

Sequence of human MrgprX1 (hMrgprX1) (Q96LB2 whole entry, looked up): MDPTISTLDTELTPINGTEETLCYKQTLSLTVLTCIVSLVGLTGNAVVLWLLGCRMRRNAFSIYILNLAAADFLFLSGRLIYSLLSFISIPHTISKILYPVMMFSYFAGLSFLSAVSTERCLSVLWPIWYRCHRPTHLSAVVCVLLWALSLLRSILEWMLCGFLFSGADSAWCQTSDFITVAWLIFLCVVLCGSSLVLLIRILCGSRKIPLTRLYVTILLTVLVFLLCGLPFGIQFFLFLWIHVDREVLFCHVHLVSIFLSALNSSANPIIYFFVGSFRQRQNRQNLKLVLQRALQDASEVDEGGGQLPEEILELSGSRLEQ

Turning to HSGILLAWSGPRNRFVRI-NH2 [CNF-Tx2], in experiment [1], the “Itch-related scratching after intradermal cheek injection of peptide” value is “induces significant scratching”. Besides, on human MrgprX1 (hMrgprX1), the “Activation of hMrgprX1” value is “activates”, the concentration for a half-maximal effect (EC50) amounted to 540 nM and the “Potency in activating hMrgprX1 relative to CNF-Vc1” value is given as “at least threefold more potent”.

For WSGPRNRFVRF-NH2 [CNF-Vc1(7–18)], the “Activation of hMrgprX1” value on human MrgprX1 (hMrgprX1) is on record as “can activate”.
